Measurements taken from US20150368209A1, “4-Pyrimidinylamino-benzenesulfonamide derivatives and their use for the inhibition of polo-like kinase 1 (PLK1) for the treatment of cancer and their use for the treatment of bacterial infections” (VICHEM CHEMIE KUTATÓ KFT., priority 2013, published 2015).
In brackets after ≈: the same amount, converted by molar mass.

Legend:
human PLK1 kinase domain = target: T1, human PLK1 kinase domain (Homo sapiens, UniProt P53350); test: In vitro PLK1 assay (IMAP fluorescence polarization kinase assay); type: biochemical; settings: for IC50: 30 nM PLK1 kinase domain, 16 μM ATP (=Kmapp), 90 min at room temperature; for inhibition at 10 µM: at 10 uM compound
T1 construct: Each reaction consisted of 30 nM enzyme PLK1 kinase domain
Experimental: The activity of the compounds described in the present invention was determined using a commercially available IMAP Screening Express Assay Kit (Molecular devices).
This method measures the change in the fluorescent polarization of a fluorescently-labeled peptide due to the effect of human PLK1 kinase domain on it. PLK1 kinase assays were performed in low protein binding 384-well plates (Corning 3676). Test compounds were diluted in 100% DMSO to 5 mM stock concentration, the further dilutions were made in H2O or 100% DMSO to desirable concentrations.
Each reaction consisted of 30 nM enzyme PLK1 kinase domain, 400 nM 5TAMRA-RGSFNDTLDFD-NH2 (Genecust Europe), 16 μM ATP (=Kmapp, Sigma-Aldrich) and kinase buffer: 20 mM HEPES pH 7.5 (Sigma-Aldrich), 1 mM DTT (Sigma-Aldrich), 10 mM MgCl2 (Sigma-Aldrich), 0.01% Triton X-100 (Sigma-Aldrich).
For each reaction, 4 or 6 μl containing 5TAMRA-RGSFNDTLDFD-NH2, ATP and kinase buffer were combined with 2 μl diluted compound in H2O or 0.04 μl compound in 100% DMSO. The kinase reaction was started by the addition of 2 μl diluted enzyme. The reaction was allowed to run for 90 minutes at room temperature. The reaction was stopped by adding 15 μl IMAP beads (1:1200 beads in progressive (40% buffer A, 60% buffer B) 1× buffer). After an additional 60 minutes, fluorescent polarization (Ex: 550-10 nm, Em: 590-10 nm, Dich: 561 nm) was measured using Analyst GT multimode reader (Molecular Devices).

M. tuberculosis H37Rv = test: Resazurin reduction microtiter assay (REMA), growth inhibition and MIC determination; type: cell-based; settings: Mycobacterium tuberculosis, 168 h, 7 days at 37° C.; for inhibition at 20 µM: at 20 uM compound, read-out: H37Rv inh % at 20 uM; for MIC: two-fold serial dilution from 100 to 0.16 μM, read-out: H37Rv MIC90

T1 sequence (P53350 53-305 limits assumed): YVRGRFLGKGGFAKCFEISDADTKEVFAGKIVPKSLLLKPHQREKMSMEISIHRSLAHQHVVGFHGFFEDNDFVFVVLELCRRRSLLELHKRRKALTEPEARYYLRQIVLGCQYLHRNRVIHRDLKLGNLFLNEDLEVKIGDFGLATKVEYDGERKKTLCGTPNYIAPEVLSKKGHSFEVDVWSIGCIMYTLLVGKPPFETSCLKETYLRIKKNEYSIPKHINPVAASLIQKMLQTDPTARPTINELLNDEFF

SMILES | IC50 (human PLK1 kinase domain) [µM] | inhibition at 10 µM (human PLK1 kinase domain) [%] | inhibition at 20 µM (M. tuberculosis H37Rv) [%] | MIC (M. tuberculosis H37Rv) [µM]
COc1ccccc1-c1cc(Nc2ccc(S(=O)(=O)Nc3nnc(C)s3)cc2)ncn1 [Example 32, 4-[6-(2-Methoxy-phenyl)-pyrimidin-4-ylamino]-N-(5-methyl-[1,3,4]thiadiazol-2-yl)-benzenesulfonamide] | 0.917 | 63.5 | 100 | 18.5 (≈ 8.41 µg/mL)
COc1ccccc1-c1cc(Nc2ccc(S(=O)(=O)Nc3onc(C)c3C)cc2)ncn1 [Example 31, N-(3,4-Dimethyl-isoxazol-5-yl)-4-[6-(2-methoxy-phenyl)-pyrimidin-4-ylamino]-benzenesulfonamide] | 2.47 | 79.8 |  | 
Cc1noc(NS(=O)(=O)c2ccc(Nc3cc(-c4ccc(F)cc4F)ncn3)cc2)c1C [Example 21, 4-[6-(2,4-Difluoro-phenyl)-pyrimidin-4-ylamino]-N-(3,4-dimethyl-isoxazol-5-yl)-benzenesulfonamide] | 0.368 | 65.8 | -3.7 | 
COc1ccc(F)cc1-c1cc(Nc2ccc(S(=O)(=O)Nc3onc(C)c3C)cc2)ncn1 [Example 38, N-(3,4-Dimethyl-isoxazol-5-yl)-4-[6-(5-fluoro-2-methoxy-phenyl)-pyrimidin-4-ylamino]-benzenesulfonamide] | 3.19 | 80.8 | 96.4 | 19.6 (≈ 9.2 µg/mL)
Cc1ccc(COCc2cc(C)cc(-c3cc(Nc4ccc(S(=O)(=O)Nc5onc(C)c5C)cc4)ncn3)c2)cc1 [Example 47, N-(3,4-Dimethyl-isoxazol-5-yl)-4-{6-[3-methyl-5-(4-methyl-benzyloxymethyl)-phenyl]-pyrimidin-4-ylamino}-benzenesulfonamide] |  | -4 |  | 
Cc1noc(NS(=O)(=O)c2ccc(Nc3cc(-c4cccc5c4OCO5)ncn3)cc2)c1C [Example 3, 4-(6-Benzo[1,3]dioxol-4-yl-pyrimidin-4-ylamino)-N-(3,4-dimethyl-isoxazol-5-yl)-benzenesulfonamide] |  | 48.5 | -7.2 | 
Cc1noc(NS(=O)(=O)c2ccc(Nc3cc(-c4ccccc4C(F)(F)F)ncn3)cc2)c1C [Example 1, N-(3,4-Dimethyl-isoxazol-5-yl)-4-[6-(2-trifluoromethyl-phenyl)-pyrimidin-4-ylamino]-benzenesulfonamide] | 1.45 | 96.1 | 101 | 2.77 (≈ 1.35 µg/mL)
Cc1noc(NS(=O)(=O)c2ccc(Nc3cc(-c4ccccc4)ncn3)cc2)c1C [Example 39, N-(3,4-Dimethyl-isoxazol-5-yl)-4-(6-phenyl-pyrimidin-4-ylamino)-benzenesulfonamide] |  | 57.9 | -22.2 | 
CCCOc1ccccc1-c1cc(Nc2ccc(S(=O)(=O)Nc3onc(C)c3C)cc2)ncn1 [Example 10, N-(3,4-Dimethyl-isoxazol-5-yl)-4-[6-(2-propoxy-phenyl)-pyrimidin-4-ylamino]-benzenesulfonamide] | 0.925 | 104 | -21.2 | 
CCOc1ccccc1-c1cc(Nc2ccc(S(=O)(=O)Nc3onc(C)c3C)cc2)ncn1 [Example 8, N-(3,4-Dimethyl-isoxazol-5-yl)-4-[6-(2-ethoxy-phenyl)-pyrimidin-4-ylamino]-benzenesulfonamide] | 1.25 | 82.4 | -48.4 | 
CCc1ccccc1-c1cc(Nc2ccc(S(=O)(=O)Nc3onc(C)c3C)cc2)ncn1 [Example 20, N-(3,4-Dimethyl-isoxazol-5-yl)-4-[6-(2-ethyl-phenyl)-pyrimidin-4-ylamino]-benzenesulfonamide] | 0.96 | 73 | 103 | 4.84 (≈ 2.18 µg/mL)
Cc1noc(NS(=O)(=O)c2ccc(Nc3cc(-c4ccccc4F)ncn3)cc2)c1C [Example 40, N-(3,4-Dimethyl-isoxazol-5-yl)-4-[6-(2-fluoro-phenyl)-pyrimidin-4-ylamino]-benzenesulfonamide] | 2.43 | 88.6 | -8.5 | 
Cc1noc(NS(=O)(=O)c2ccc(Nc3cc(-c4ccc(F)cc4Cl)ncn3)cc2)c1C [Example 19, 4-[6-(2-Chloro-4-fluoro-phenyl)-pyrimidin-4-ylamino]-N-(3,4-dimethyl-isoxazol-5-yl)-benzenesulfonamide] | 0.047 | 60.8 | 100 | 19.4 (≈ 9.22 µg/mL)
Cc1noc(NS(=O)(=O)c2ccc(Nc3cc(-c4cccc(C(F)(F)F)c4)ncn3)cc2)c1C [Example 42, N-(3,4-Dimethyl-isoxazol-5-yl)-4-[6-(3-trifluoromethyl-phenyl)-pyrimidin-4-ylamino]-benzenesulfonamide] |  | 17 | 24.2 | 
Cc1noc(NS(=O)(=O)c2ccc(Nc3cc(-c4ccccc4C(N)=O)ncn3)cc2)c1C [Example 26, 2-{6-[4-(3,4-Dimethyl-isoxazol-5-ylsulfamoyl)-phenylamino]-pyrimidin-4-yl}-benzamide] |  | 0 | -34.2 | 
Cc1noc(NS(=O)(=O)c2ccc(Nc3cc(-c4ccc(N(C)C)cc4)ncn3)cc2)c1C [Example 48, 4-[6-(4-Dimethylamino-phenyl)-pyrimidin-4-ylamino]-N-(3,4-dimethyl-isoxazol-5-yl)-benzenesulfonamide] | 14.2 | 87 |  | 
Cc1noc(NS(=O)(=O)c2ccc(Nc3cc(-c4cccc5ccccc45)ncn3)cc2)c1C [Example 43, N-(3,4-Dimethyl-isoxazol-5-yl)-4-(6-naphthalen-1-yl-pyrimidin-4-ylamino)-benzenesulfonamide] | 13.8 | 58.8 | -9.2 | 
Cc1noc(NS(=O)(=O)c2ccc(Nc3cc(-c4ccc(C(F)(F)F)cc4)ncn3)cc2)c1C [Example 25, N-(3,4-Dimethyl-isoxazol-5-yl)-4-[6-(4-trifluoromethyl-phenyl)-pyrimidin-4-ylamino]-benzenesulfonamide] |  | 0 | -9.8 | 
CC(=O)Nc1ccc(-c2cc(Nc3ccc(S(=O)(=O)Nc4onc(C)c4C)cc3)ncn2)cc1 [Example 27, N-(4-{6-[4-(3,4-Dimethyl-isoxazol-5-ylsulfamoyl)-phenylamino]-pyrimidin-4-yl}-phenyl)-acetamide] | 0.372 | 68.7 | -11.9 | 
COc1ccc(COc2ccccc2-c2cc(Nc3ccc(S(=O)(=O)Nc4onc(C)c4C)cc3)ncn2)cc1 [Example 29, N-(3,4-Dimethyl-isoxazol-5-yl)-4-{6-[2-(4-methoxy-benzyloxy)-phenyl]-pyrimidin-4-ylamino}-benzenesulfonamide] |  | 36 | -14.2 | 
COc1cc(F)ccc1-c1cc(Nc2ccc(S(=O)(=O)Nc3onc(C)c3C)cc2)ncn1 [Example 18, N-(3,4-Dimethyl-isoxazol-5-yl)-4-[6-(4-fluoro-2-methoxy-phenyl)-pyrimidin-4-ylamino]-benzenesulfonamide] | 0.04 | 63.3 | -8.6 | 
Cc1noc(NS(=O)(=O)c2ccc(Nc3cc(-c4ccccc4COc4ccc(OC(F)(F)F)cc4)ncn3)cc2)c1C [Example 30, N-(3,4-Dimethyl-isoxazol-5-yl)-4-{6-[2-(4-trifluoromethoxy-phenoxymethyl)-phenyl]-pyrimidin-4-ylamino}-benzenesulfonamide] |  | 0 |  | 
Cc1noc(NS(=O)(=O)c2ccc(Nc3cc(-c4cccc(N)c4)ncn3)cc2)c1C [Example 44, 4-[6-(3-Amino-phenyl)-pyrimidin-4-ylamino]-N-(3,4-dimethyl-isoxazol-5-yl)-benzenesulfonamide] | 11.4 | 68 |  | 
Cc1noc(NS(=O)(=O)c2ccc(Nc3cc(-c4ccc(C(N)=O)cc4)ncn3)cc2)c1C [Example 46, 4-{6-[4-(3,4-Dimethyl-isoxazol-5-ylsulfamoyl)-phenylamino]-pyrimidin-4-yl}-benzamide] |  | 24 |  | 
Cc1noc(NS(=O)(=O)c2ccc(Nc3cc(-c4ccc(N)cc4)ncn3)cc2)c1C [Example 45, 4-[6-(4-Amino-phenyl)-pyrimidin-4-ylamino]-N-(3,4-dimethyl-isoxazol-5-yl)-benzenesulfonamide] | 7.34 | 88 |  | 
COc1ccc(F)c(F)c1-c1cc(Nc2ccc(S(=O)(=O)Nc3onc(C)c3C)cc2)ncn1 [Example 14, 4-[6-(2,3-Difluoro-6-methoxy-phenyl)-pyrimidin-4-ylamino]-N-(3,4-dimethyl-isoxazol-5-yl)-benzenesulfonamide] |  | 55.4 |  | 
